From patent US8420341B2, “Methods for measuring ADP” (Genewiz Inc., Suzhou, priority 2007, dated 2013)

Molecular target: PKA (Homo sapiens, UniProt P17612)
Assay: PKA kinase reaction, ADP luminescent enzyme-coupled assay
Format: biochemical
Details: 5 μM ATP, 30 μM Kemptide, 2.5 nM PKA, 90 minutes at room temperature; FIGS. 4A-4B
Experimental: Assay Procedures 1. Add 10 μl reagent A to 30 μl kinase reaction mixtures and incubate at RT. 2. Add 10 μl reagent B and read luminescence immediately.
At the end of incubation, 10 μl Reagent B were added and luminescence was measured. Each data point represents the average of 3 repeats.

Structure (SMILES): O=S(=O)(NCCNC/C=C/c1ccc(Br)cc1)c1cccc2cnccc12 [H89]
- luminescence signals (PKA activity) with increasing amounts of inhibitor: decreased luminescence signals in a dose dependent manner
